Where two headings read alike, the source gives them in different places.
Legend:
Souris [1] = assay: antireserpine activity: reserpine hypothermia; type: in vivo; details: réserpine 5 mg/kg i.p. 17 h before; for change in vivo at 50 mg/kg / change in vivo at 150 mg/kg: ip, 4 h, read-out: % d'augmentation par rapport aux témoins
Procedure: On note ensuite les températures témoins (réserpine), puis les températures 1, 2, 3 et 4 heures après l'administration des produits étudiés.
Les animaux sont répartis en lots de 4 animaux et reçoivent par voie intrapéritonéale la réserpine à une dose de 5 mg/kg. 17 heures après cette injection, on mesure la température corporelle de l'animal à l'aide d'une sonde thermocouple introduite dans le rectum; chaque lot reçoit ensuite la substance par voie intrapéritonéale. Le lot témoin reçoit la même quantité de solvant et par la même voie. La température corporelle est ensuite mesurée toutes les heures pendant 4 heures.
Les résultats sont rassemblés dans un tableau récapitulatif-où sont indiqués : • - la température moyenne pour chaque lot relevée 17 heures après l'injection de la réserpine, • - la moyenne des variations de température pour chaque lot relevées 1,2, 3 et 4 heures après l'injection de la substance étudiée, • - la somme des variations de températures pendant 4 heures, • - le pourcentage d'augmentation de la température pour chaque produit par rapport aux témoins.

Souris [2] = assay: tetrabenazine hypothermia; type: in vivo; details: product i.p. 80 mg/kg 30 min before tétrabénazine 32 mg/kg i.v.
Procedure: (§1) Ce test permet de révéler également une activité antidépressive avec l'avantage d'une lecture plus rapide qu'avec la réserpine.
Les produits sont injectés 30 minutes avant l'administration de tétrabénazine.
Les températures sont relevées aux temps : 0, 30 minutes, 60 minutes, 90 minutes et 120 minutes.
(§2) Les souris sont réparties par lots de 5.
Les températures sont relevées avant l'injection de tétrabénazine, 30 minutes, 60 minutes, 90 minutes et 120 minutes après.
(§3) Le lot témoin comprend 20 souris.

souris femelles = assay: acute toxicity in the mouse, intraperitoneal; type: in vivo; details: voie intrapéritonéale, dead mice of the group
Description: (§4) Les produits ont été administrés par voie intrapéritonéale à des souris femelles dont le poids variait de 18 à 30 g.
(§5) Les animaux injectés ont été maintenus dans une salle thermostatée, nourris et abreuvés à volonté.
(§6) La mortalité a été relevée à 1 heure, 4 heures, 24 heures et 48 heures.

[3] = acute toxicity in the mouse, intraperitoneal; type: in vivo, Souris; details: mouse, in vivo, ip, voie intrapéritonéale; for LD50 at 48 h: souris femelles, read-out: DL 50; for mortality at 48 h: read-out: Mortalité %
Description: as §4, §5, §6

Souris [4] = assay: tetrabenazine ptosis; type: in vivo; details: product i.p. 100 mg/kg 30 min before tétrabénazine 32 mg/kg i.v.
Procedure: as §1, §2
Le ptosis est noté avant l'injection de tétrabénazine, 30 minutes, 60 minutes, 90 minutes et 120 minutes après.
On a adopté la notation suivante : • - 0 : pour un oeil ouvert, • - 1 : pour un oeil fermé au quart, • - 2 : pour un oeil fermé à moitié, • - 3 : pour un oeil fermé aux trois-quarts, • - 4 : pour un oeil fermé complètement.
as §3

O=C(O)CCCCCCNC1c2ccccc2CCc2ccccc21 [Aminep-tine, amineptine, reference compound]
variation de température T=1h (Souris [1]; product i.p. 80 mg/kg): +1,5
variation de température T= 2h (Souris [1]; product i.p. 80 mg/kg): +1,6
variation de température T=3h (Souris [1]; product i.p. 80 mg/kg): +1
variation de température T=4h (Souris [1]; product i.p. 80 mg/kg): +0,1
inhibition in vivo at 80 mg/kg (Souris [2]; ip, 2 h, hypothermie, read-out: % de protection): 51%
Température après tétrabénazine 30 minutes (Souris [2]): -1,8
Température après tétrabénazine 60 minutes (Souris [2]): -1,8
Température après tétrabénazine 90 minutes (Souris [2]): -1,1
Température après tétrabénazine 120 minutes (Souris [2]): -0,2
Température après tétrabénazine Total (Souris [2]): -4,2

CN(C)CCN1c2ccccc2-c2onc(-c3ccccc3)c2-c2ccccc21 [compound 17, (β-diméthylaminoéthyl)-8 phényl-3 (dibenzo [b,f]isoxazolo [4,5-d]) 8H azépine]
change in vivo at 50 mg/kg (Souris [1]; product i.p. 50 mg/kg): 0%
change in vivo at 150 mg/kg (Souris [1]; product i.p. 150 mg/kg): 300%
Mortalité en 1 heure (souris femelles; 50 mg/kg): 0
Mortalité en 48 h. (souris femelles; 50 mg/kg): 0
Mortalité en 1 heure (souris femelles; 100 mg/kg): 0
Mortalité en 48 h. (souris femelles; 100 mg/kg): 0
Mortalité en 1 heure (souris femelles; 150 mg/kg): 0
Mortalité en 48 h. (souris femelles; 150 mg/kg): 0
Mortalité en 1 heure (souris femelles; 200 mg/kg): 5
Mortalité en 48 h. (souris femelles; 200 mg/kg): 5
Mortalité en 1 heure (souris femelles; 250 mg/kg): 4
Mortalité en 48 h. (souris femelles; 250 mg/kg): 5
LD50 at 48 h [3]: 175 mg/kg
mortality at 48 h ([3]; 50 mg/kg): 0%
mortality at 48 h ([3]; 100 mg/kg): 0%
mortality at 48 h ([3]; 150 mg/kg): 0%
mortality at 48 h ([3]; 200 mg/kg): 100%
mortality at 48 h ([3]; 250 mg/kg): 100%

CC(CN(C)C)CN1c2ccccc2-c2onc(-c3ccccc3)c2-c2ccccc21 (stereo not drawn) [compound 19, (méthyl-2 diméthylamino-3 propyl)-8 phényl-,3 (dibenzo [b ,f]isoxazolo [3 ,4-d]) 8H azépine]
change in vivo at 150 mg/kg (Souris [1]; product i.p. 150 mg/kg): 110%
variation de température T=1h (Souris [1]; product i.p. 150 mg/kg): +3,4
variation de température T= 2h (Souris [1]; product i.p. 150 mg/kg): +0,7
variation de température T=3h (Souris [1]; product i.p. 150 mg/kg): +0,7
variation de température T=4h (Souris [1]; product i.p. 150 mg/kg): -0,6
inhibition in vivo at 100 mg/kg (Souris [4]; ip, 2 h, ptosis, read-out: % de protection): 16%
Ptosis Total (Souris [4]): 25,3
Ptosis 30 minutes (Souris [4]; score 0-4 per eye): 5
Ptosis 60 minutes (Souris [4]; score 0-4 per eye): 6,3
Ptosis 90 minutes (Souris [4]; score 0-4 per eye): 6,7
Ptosis 120 minutes (Souris [4]; score 0-4 per eye): 7,3
Mortalité en 1 heure (souris femelles; 50 mg/kg): 0
Mortalité en 48 h. (souris femelles; 50 mg/kg): 0
Mortalité en 1 heure (souris femelles; 100 mg/kg): 0
Mortalité en 48 h. (souris femelles; 100 mg/kg): 0
Mortalité en 1 heure (souris femelles; 250 mg/kg): 1
Mortalité en 48 h. (souris femelles; 250 mg/kg): 3
Mortalité en 1 heure (souris femelles; 500 mg/kg): 5
Mortalité en 48 h. (souris femelles; 500 mg/kg): 5
LD50 at 48 h [3]: 175 mg/kg
mortality at 48 h ([3]; 50 mg/kg): 0%
mortality at 48 h ([3]; 100 mg/kg): 0%
mortality at 48 h ([3]; 250 mg/kg): 60%
mortality at 48 h ([3]; 500 mg/kg): 100%

CN(C)CCCN1c2ccccc2C=Cc2ccccc21 [compound 21, (α-diméthylaminopropyl)-5 dibenzo [b,f] 5H azépine, reference compound]
change in vivo at 50 mg/kg (Souris [1]; product i.p. 50 mg/kg): 30%
variation de température T= 2h (Souris [1]; product i.p. 50 mg/kg): -0,1
variation de température T=3h (Souris [1]; product i.p. 50 mg/kg): +0,2
variation de température T=4h (Souris [1]; product i.p. 50 mg/kg): +0,5
Mortalité en 1 heure (souris femelles; 50 mg/kg): 0
Mortalité en 48 h. (souris femelles; 50 mg/kg): 0
Mortalité en 1 heure (souris femelles; 75 mg/kg): 0
Mortalité en 48 h. (souris femelles; 75 mg/kg): 0
Mortalité en 1 heure (souris femelles; 125 mg/kg): 5
Mortalité en 48 h. (souris femelles; 125 mg/kg): 5
Mortalité en 1 heure (souris femelles; 250 mg/kg): 5
Mortalité en 48 h. (souris femelles; 250 mg/kg): 5
LD50 at 48 h [3]: 100 mg/kg
mortality at 48 h ([3]; 50 mg/kg): 0%
mortality at 48 h ([3]; 75 mg/kg): 0%
mortality at 48 h ([3]; 125 mg/kg): 100%
mortality at 48 h ([3]; 250 mg/kg): 100%
